Results published in DBAASP.
≈ marks a conversion by molar mass, not a printed value.

Experiments:
Assay in all cases: ≥ marks a high value that may be exact or a test limit, other limits are often not marked, values filed in µg/mL are converted to µM
[1] = tested on: Streptococcus thermophilus YM-C
Escherichia coli UB1005 = tested on: Escherichia coli UB1005
[2] = tested on: Staphylococcus aureus ATCC 25923
[3] = tested on: Escherichia coli ATCC 25922
[4] = tested on: Staphylococcus aureus ATCC 29213
Streptococcus agalactiae = tested on: Streptococcus agalactiae
[5] = tested on: Streptococcus agalactiae CICC 10465
[6] = tested on: Salmonella enterica subsp. enterica serovar Typhimurium ATCC 14028
[7] = tested on: Staphylococcus epidermidis ATCC 12228
[8] = tested on: Salmonella enterica subsp. enterica serovar Pullorum ATCC 7913
Escherichia coli 078 = tested on: Escherichia coli 078
[9] = tested on: Pseudomonas aeruginosa ATCC 27853
[10] = tested on: Lacticaseibacillus rhamnosus 7469
[11] = tested on: Salmonella enterica subsp. enterica serovar Typhimurium C77-31
[12] = tested on: Pseudomonas aeruginosa 919
[13] = tested on: Pseudomonas aeruginosa PAO1
[14] = tested on: Pseudomonas aeruginosa 253
[15] = tested on: Pseudomonas aeruginosa 910
[16] = tested on: Pseudomonas aeruginosa Ps4
[17] = tested on: Pseudomonas aeruginosa H187
[18] = tested on: Pseudomonas aeruginosa H188
[19] = tested on: Corynebacterium xerosis C875
[20] = tested on: Salmonella typhimurium C610
[21] = tested on: Staphylococcus epidermidis C621
[22] = tested on: Staphylococcus aureus SAP 0017
[23] = tested on: Enterococcus faecalis C625
Bacillus subtilis C971 = tested on: Bacillus subtilis C971
[24] = tested on: Salmonella typhimurium C587
Escherichia coli DC2 = tested on: Escherichia coli DC2
Escherichia coli ESBL = tested on: Escherichia coli ESBL
[25] = tested on: Escherichia coli ATCC 35218
[26] = tested on: Escherichia coli ATCC 43827
Escherichia coli ESBL 4 = tested on: Escherichia coli ESBL 4
[27] = tested on: Escherichia coli ATCC 11775
Candida albicans = tested on: Candida albicans
[28] = tested on: Pseudomonas aeruginosa H103
[29] = tested on: Staphylococcus epidermidis
[30] = tested on: Salmonella enterica serovar Typhimurium
[31] = tested on: Enterococcus faecalis ATCC 29212

For `CC[C@H](C)[C@H](NC(=O)[C@H](CC(C)C)NC(=O)[C@@H](NC(=O)[C@@H](N)CC(=O)O)[C@@H](C)CC)C(=O)N[C@H](C(=O)N[C@H](C(=O)NCC(=O)NCC(=O)N[C@@H](CCCCN)C(=O)N[C@@H](CCCN=C(N)N)C(=O)N[C@@H](CCCN=C(N)N)C(=O)N[C@@H](CCCCN)C(=O)N[C@@H](CCCCN)C(=O)N[C@@H](CCCN=C(N)N)C(=O)N[C@@H](CCCN=C(N)N)C(=O)N[C@@H](CCCN=C(N)N)C(N)=O)C(C)C)[C@@H](C)CC` [DILIIVGGKRRKKRRR], the MIC [1] was no less than 64 µM, the MIC (Escherichia coli UB1005) was 4 µM (≈ 7.85 µg/mL) and the MIC [2] was 4 µM (≈ 7.85 µg/mL). It also gave an MIC [3] of 4 µM (≈ 7.85 µg/mL), an MIC [4] of 4 µM (≈ 7.85 µg/mL) and an MIC (Streptococcus agalactiae) of 4 µM (≈ 7.85 µg/mL). The MIC [5] was 2 µM (≈ 3.93 µg/mL), the MIC [6] was 8 µM (≈ 15.7 µg/mL) and the MIC [7] was 8 µM (≈ 15.7 µg/mL). The MIC [8] was 8 µM (≈ 15.7 µg/mL), the MIC (Escherichia coli 078) was 8 µM (≈ 15.7 µg/mL) and the MIC [9] was 4 µM (≈ 7.85 µg/mL). For the same compound, the MIC [10] was no less than 64 µM and the MIC [11] was 8 µM (≈ 15.7 µg/mL).
`CC[C@H](C)[C@H](NC(=O)[C@H](CC(C)C)NC(=O)[C@@H](NC(=O)[C@@H](N)CC(=O)O)[C@@H](C)CC)C(=O)N[C@H](C(=O)N[C@H](C(=O)NCC(=O)NCC(=O)N[C@@H](CCCN=C(N)N)C(=O)N[C@@H](CCCN=C(N)N)C(N)=O)C(C)C)[C@@H](C)CC` [DILIIVGGRR] showed an MIC [1] of no less than 64 µM, an MIC (Escherichia coli UB1005) of no less than 64 µM and an MIC [2] greater than 64 µM. It also gave an MIC [3] greater than 64 µM, an MIC [4] greater than 64 µM and an MIC (Streptococcus agalactiae) of no less than 64 µM. It also gave an MIC [5] of no less than 64 µM, an MIC [6] greater than 64 µM and an MIC [7] greater than 64 µM. The MIC [8] was no less than 64 µM, the MIC (Escherichia coli 078) was no less than 64 µM and the MIC [9] was greater than 64 µM. For the same compound, the MIC [10] was no less than 64 µM and the MIC [11] was no less than 64 µM.
For `CC[C@H](C)[C@H](NC(=O)[C@@H](N)Cc1ccccc1)C(=O)N[C@@H](CCCCN)C(=O)N[C@@H](Cc1c[nH]c2ccccc12)C(=O)N[C@@H](CCCN=C(N)N)C(=O)N[C@@H](CO)C(=O)N[C@@H](CCCN=C(N)N)C(=O)N[C@@H](Cc1c[nH]c2ccccc12)C(=O)N[C@@H](Cc1c[nH]c2ccccc12)C(=O)N[C@@H](CCCCN)C(=O)N[C@@H](CCCCN)C(=O)N[C@@H](CCCN=C(N)N)C(=O)N[C@H](C(N)=O)[C@@H](C)O` [FIKWRSRWWKKRT], the MIC [12] was no less than 32 µM, the MIC [13] was 4 µM (≈ 7.51 µg/mL) and the MIC [14] was 16 µM (≈ 30 µg/mL). For the same compound, the MIC [15] was 8 µM (≈ 15 µg/mL).
Work on `CC(C)C[C@H](NC(=O)[C@H](CCCN=C(N)N)NC(=O)[C@H](CC(C)C)NC(=O)[C@H](CC(N)=O)NC(=O)[C@H](CCCN=C(N)N)NC(=O)[C@H](CCC(N)=O)NC(=O)[C@H](Cc1c[nH]c2ccccc12)NC(=O)[C@@H](N)Cc1ccccc1)C(=O)N[C@@H](CCCN=C(N)N)C(=O)N[C@@H](CCCN=C(N)N)C(N)=O` [FWQRNLRLRR] yielded an MIC [16] of no less than 173 µM.
`CC[C@H](C)[C@H](NC(=O)[C@H](CC(N)=O)NC(=O)[C@H](CCCN=C(N)N)NC(=O)[C@H](Cc1c[nH]c2ccccc12)NC(=O)[C@@H](N)Cc1ccccc1)C(=O)N[C@@H](CCCN=C(N)N)C(=O)N[C@@H](CCCCN)C(=O)N[C@H](C(=O)N[C@@H](CCCN=C(N)N)C(N)=O)C(C)C` [FWRNIRKVR] was tested, and the MIC [16] was no less than 196 µM.
`CC[C@H](C)[C@H](NC(=O)[C@H](C)NC(=O)[C@H](CCCCN)NC(=O)[C@H](CC(C)C)NC(=O)[C@H](C)NC(=O)[C@@H](NC(=O)[C@H](Cc1cnc[nH]1)NC(=O)[C@H](CC(C)C)NC(=O)[C@@H](NC(=O)[C@@H](NC(=O)[C@H](CCCCN)NC(=O)[C@@H](NC(=O)[C@H](C)NC(=O)[C@H](CCCCN)NC(=O)[C@H](CCCCN)NC(=O)[C@H](Cc1ccccc1)NC(=O)[C@@H](NC(=O)[C@H](CCCCN)NC(=O)[C@H](CC(C)C)NC(=O)[C@H](Cc1ccccc1)NC(=O)[C@H](CO)NC(=O)[C@H](CCCCN)NC(=O)[C@H](Cc1c[nH]c2ccccc12)NC(=O)[C@H](CCCCN)NC(C)=O)[C@@H](C)O)C(C)C)[C@@H](C)O)C(C)C)[C@@H](C)O)C(=O)N[C@@H](CO)C(=O)N[C@@H](CO)C(N)=O` [KWKSFLKTFKKAVKTVLHTALKAISS] showed an MIC (Escherichia coli UB1005) of 3.41 µM (≈ 10.2 µg/mL), an MIC [2] of 10.8 µM (≈ 32.4 µg/mL) and an MIC [17] of 8.58 µM (≈ 25.8 µg/mL). For the same compound, the MIC [18] was 10.8 µM (≈ 32.4 µg/mL), the MIC [19] was 1.35 µM (≈ 4.06 µg/mL) and the MIC [20] was 2.7 µM (≈ 8.11 µg/mL). The MIC [21] was 2.16 µM (≈ 6.49 µg/mL), the MIC [22] was 5.4 µM (≈ 16.2 µg/mL) and the MIC [23] was 10.8 µM (≈ 32.4 µg/mL). It also gave an MIC (Bacillus subtilis C971) of 1.08 µM (≈ 3.24 µg/mL), an MIC [24] of 8.58 µM (≈ 25.8 µg/mL) and an MIC (Escherichia coli DC2) of 1.35 µM (≈ 4.06 µg/mL).
For `CC[C@H](C)[C@H](NC(=O)[C@H](Cc1ccc(O)cc1)NC(=O)[C@H](CCC(N)=O)NC(=O)[C@H](CC(C)C)NC(=O)[C@H](C)NC(=O)[C@H](CCCCN)NC(=O)[C@H](CCCCN)NC(=O)[C@H](CCSC)NC(=O)[C@H](CCCCN)NC(=O)[C@H](CCCCN)NC(=O)[C@H](CCCCN)NC(=O)[C@@H](N)CCCN=C(N)N)C(=O)N[C@@H](CCCCN)C(=O)N[C@@H](CC(C)C)C(=O)N[C@@H](CC(C)C)C(=O)N[C@@H](CCCCN)C(=O)N[C@@H](CCC(=O)O)C(N)=O` [RKKKMKKALQYIKLLKE], the MIC (Escherichia coli ESBL) was 12.5 µM (≈ 26.8 µg/mL), the MIC [3] was 25 µM (≈ 53.6 µg/mL) and the MIC [25] was 6 µM (≈ 12.9 µg/mL). The MIC [9] was 100 µM (≈ 215 µg/mL), the MIC [26] was 3 µM (≈ 6.44 µg/mL) and the MIC (Escherichia coli ESBL 4) was no less than 100 µM. It also gave an MIC [27] of no less than 100 µM.
Work on `CC[C@H](C)[C@H](NC(=O)[C@H](CCCN=C(N)N)NC(=O)[C@H](C)NC(=O)[C@H](CCCN=C(N)N)NC(=O)[C@@H](N)CCCN=C(N)N)C(=O)N[C@H](C(=O)N[C@H](C(=O)N[C@H](C(=O)N[C@@H](CCCN=C(N)N)C(=O)N[C@H](C(=O)N[C@@H](C)C(=O)N[C@@H](CCCN=C(N)N)C(N)=O)C(C)C)[C@@H](C)CC)C(C)C)C(C)C` [RRARIVVIRVAR] yielded an MIC (Escherichia coli UB1005) of 2.73 µM (≈ 4 µg/mL), an MIC [2] of 10.9 µM (≈ 16 µg/mL) and an MIC (Candida albicans) of 5.46 µM (≈ 7.99 µg/mL). It also gave an MIC [12] of 16 µM (≈ 23.4 µg/mL), an MIC [28] of 5.46 µM (≈ 7.99 µg/mL) and an MIC [13] of 32 µM (≈ 46.8 µg/mL). The MIC [14] was no less than 32 µM, the MIC [15] was no less than 32 µM and the MIC [29] was 1.37 µM (≈ 2 µg/mL). For the same compound, the MIC [30] was 5.46 µM (≈ 7.99 µg/mL) and the MIC [31] was 10.9 µM (≈ 16 µg/mL).
